# Source: patent publication US7772241B2, “Variolin derivatives and their use as antitumor agents” (Pharma Mar S.A., priority 2001, dated 2010)
# Read-outs that look alike come from different tables or passages of the source.
# How the values were obtained:
# DU-145 = experiment: Inhibition of cells growth by colorimetric (SRB) assay, DU-145; settings: for GI50 / CC50: Homo sapiens, DU-145, 48 h
# How it was run: (§1)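 Human tumour cells in RPMI 1640 with 10% FBS were seeded at 5×10^3 cells/well, allowed to attach for 18 h, then exposed to samples at 10 to 10^−8 μg/ml for 48 h. Growth was measured by SRB staining after TCA fixation, with absorbance read at 490 nm in triplicate wells.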
# IGROV-ET = experiment: Inhibition of cells growth by colorimetric (SRB) assay, IGROV-ET; settings: for GI50 / CC50: Homo sapiens, 48 h
# How it was run: as §1
compound,measurement,setting,value
CSc1nccc(-c2c3cccnc3n3c(N(C(C)=O)C(C)=O)nccc23)n1 [Compound 26],GI50,"DU-145; read-out: DU-145 GI50, SRB assay, 48 hours exposure",4.48 µM
same,CC50,"DU-145; read-out: DU-145 LC50, SRB assay, 48 hours exposure",18 µM
same,GI50,"DU-145; read-out: GI50 DU-145, SRB assay, 48 hours exposure",0.581 µM
same,CC50,"DU-145; read-out: LC50 DU-145, SRB assay, 48 hours exposure",14.9 µM
same,DU-145 TGI,"DU-145; SRB assay, 48 hours exposure",8.99E−06
same,TGI DU-145,"DU-145; SRB assay, 48 hours exposure",2.10E−06
same,GI50,"IGROV-ET; read-out: GI50 IGROV-ET, SRB assay, 48 hours exposure",1.7 µM
same,GI50,"IGROV-ET; read-out: IGROV-ET GI50, SRB assay, 48 hours exposure",0.917 µM
same,CC50,"IGROV-ET; read-out: IGROV-ET LC50, SRB assay, 48 hours exposure",11.4 µM
same,CC50,"IGROV-ET; read-out: LC50 IGROV-ET, SRB assay, 48 hours exposure",25.5 µM
same,IGROV-ET TGI,"IGROV-ET; SRB assay, 48 hours exposure",1.83E−06
same,TGI IGROV-ET,"IGROV-ET; SRB assay, 48 hours exposure",7.50E−06
